Experimental data from patent US20240025862A1, “SUBSTITUTED N-PHENYLURACILS AND SALTS THEREOF, AND USE THEREOF AS HERBICIDAL ACTIVE SUBSTANCES” (Bayer Aktiengesellschaft, priority 2020, published 2024).

Experiments:
Format in all cases: in vivo
[1] = test system: Echinochloa crus-galli (ECHCG); assay: Post-emergence herbicidal action, greenhouse pot test (also comparative test C)
Summary of the method: (§1)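 Green parts of one-leaf-stage plants are sprayed at 600 l/ha with formulated compound plus 0.5% additive, then kept under optimum greenhouse conditions for about 3 weeks. Damage is scored visually, where 100% means dead plants and 0% means no difference from controls.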

[2] = test system: Alopecurus myosuroides (ALOMY); assay: as above; conditions: rated visually after about 3 weeks vs untreated controls, 100% = plants have died
Summary of the method: as §1

[3] = test system: Matricaria inodora (MATIN); assay: as above
Summary of the method: as §1

Setaria viridis (SETVI) = assay: as above; conditions: for Post-emergence action against SETVI: 20 g/ha
Summary of the method: as §1

[4] = test system: Triticum aestivum (TRZAS); assay: Post-emergence crop plant compatibility, greenhouse pot test; conditions: vs untreated controls
Summary of the method: (§2)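 Percent crop injury was judged by eye roughly three weeks after treatment, relative to untreated plants, where 100% meant death. Application was a post-emergence spray at the one-leaf stage, 600 l/ha water volume with 0.5% additive; letters a, b, c denote differing dose rates.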

Zea mays (ZEAMX) = assay: as above; conditions: 1.25 g/ha, vs untreated controls
Summary of the method: as §2

Veronica persica (VERPE) = assay: Post-emergence herbicidal action, greenhouse pot test
Summary of the method: (§3)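 Greenhouse-grown weeds in sandy loam were sprayed post-emergence at the one-leaf stage, 2–3 weeks after sowing. Compounds were formulated as WP or EC in water with 0.5% additive at 600 l/ha, at rates of 20 g/ha or less. Visual rating after about 3 weeks used a scale from 0% (like untreated control) to 100% (plants dead).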

[5] = test system: Amaranthus retroflexus (AMARE); assay: as above; conditions: rated visually after about 3 weeks vs untreated controls, 100% = plants have died
Summary of the method: as §3

Lolium rigidum (LOLRI) = assay: as above; conditions: dosage 20 g/ha
Summary of the method: as §3

[6] = test system: Polygonum convolvulus (POLCO); assay: as above
Summary of the method: as §3

[7] = test system: Abutilon theophrasti (ABUTH); assay: as above; conditions: rated visually after about 3 weeks vs untreated controls, 100% = plants have died
Summary of the method: as §3

[8] = test system: Pharbitis purpurea (PHBPU); assay: as above
Summary of the method: as §3

Viola tricolor (VIOTR) = assay: as above
Summary of the method: as §3

Avena fatua (AVEFA) = assay: as above; conditions: 20 g/ha, rated visually after about 3 weeks vs untreated controls, 100% = plants have died
Summary of the method: as §3

Oryza sativa (ORYSA) = assay: Post-emergence crop plant compatibility, greenhouse pot test (also comparative test C); conditions: 1.25 g/ha, vs untreated controls
Summary of the method: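 Rice and other crops sprayed post-emergence at one-leaf stage (2–3 weeks after sowing) with WP or EC formulations plus 0.5% additive at 600 l/ha water. Visual rating about 3 weeks later versus untreated controls (100% = dead, 0% = like control); suffixes a–c denote different doses.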

SMILES: Cn1c(C(F)(F)F)cc(=O)n(-c2cc(Oc3ccccc3OCC(=O)OCCC#N)c(Cl)cc2F)c1=O [I.7-179]
- Post-emergence action against ECHCG in % ([1]; dosage 5 g/ha): 100%
- Post-emergence action against ECHCG in % ([1]; dosage 20 g/ha): 100%
- Post-emergence action at 20 g/ha against ALOMY in % [2]: 100%
- Post-emergence action against MATIN in % ([3]; dosage 1.25 g/ha): 80%
- Post-emergence action against MATIN in % ([3]; dosage 5 g/ha): 100%
- Post-emergence action against MATIN in % ([3]; dosage 20 g/ha): 100%
- Post-emergence action against SETVI (Setaria viridis (SETVI)): 100%
- Post-emergence action against SETVI in % (Setaria viridis (SETVI); dosage 1.25 g/ha): 100%
- Post-emergence action against SETVI in % (Setaria viridis (SETVI); dosage 5 g/ha): 100%
- Post-emergence action against TRZAS (crop plant compatibility) ([4]; 1.25 g/ha): 0%
- Post-emergence action against TRZAS (crop plant compatibility) ([4]; 5 g/ha): 0%
- Post-emergence action against ZEAMX (crop plant compatibility) (Zea mays (ZEAMX)): 0%
- Post-emergence action against VERPE (Veronica persica (VERPE); 1.25 g/ha): 100%
- Post-emergence action against VERPE (Veronica persica (VERPE); 5 g/ha): 100%
- Post-emergence action against VERPE (Veronica persica (VERPE); 20 g/ha): 100%
- Post-emergence action at 1.25 g/ha against AMARE in % [5]: 100%
- Post-emergence action at 5 g/ha against AMARE in % [5]: 100%
- Post-emergence action at 20 g/ha against AMARE in % [5]: 100%
- Post-emergence action against LOLRI in % (Lolium rigidum (LOLRI)): 100%
- Post-emergence action against POLCO in % ([6]; dosage 5 g/ha): 100%
- Post-emergence action against POLCO in % ([6]; dosage 20 g/ha): 100%
- Post-emergence action at 1.25 g/ha against ABUTH in % [7]: 100%
- Post-emergence action at 5 g/ha against ABUTH in % [7]: 100%
- Post-emergence action at 20 g/ha against ABUTH in % [7]: 100%
- Post-emergence action against PHBPU in % ([8]; dosage 1.25 g/ha): 100%
- Post-emergence action against PHBPU in % ([8]; dosage 5 g/ha): 100%
- Post-emergence action against PHBPU in % ([8]; dosage 20 g/ha): 100%
- Post-emergence action against VIOTR (Viola tricolor (VIOTR); 1.25 g/ha): 100%
- Post-emergence action against VIOTR (Viola tricolor (VIOTR); 5 g/ha): 100%
- Post-emergence action against VIOTR (Viola tricolor (VIOTR); 20 g/ha): 100%
- Post-emergence action at 20 g/ha against AVEFA in % (Avena fatua (AVEFA)): 80%
- Post-emergence action against ORYSA (crop plant compatibility) (Oryza sativa (ORYSA)): 0%

SMILES: Cn1c(C(F)(F)F)cc(=O)n(-c2cc(Oc3ccccc3OCC(=O)OCC3CCOC3)c(Cl)cc2F)c1=O (stereo not drawn) [I.7-72]
- Post-emergence action at 1.25 g/ha against ECHCG in % ([1]; 1.25 g/ha, rated visually after about 3 weeks vs untreated controls, 100% = plants have died): 80%
- Post-emergence action against ECHCG in % ([1]; dosage 5 g/ha): 100%
- Post-emergence action against ECHCG in % ([1]; dosage 20 g/ha): 100%
- Post-emergence action at 20 g/ha against ALOMY in % [2]: 100%
- Post-emergence action against MATIN in % ([3]; dosage 5 g/ha): 100%
- Post-emergence action against MATIN in % ([3]; dosage 20 g/ha): 100%
- Post-emergence action against SETVI (Setaria viridis (SETVI)): 100%
- Post-emergence action against SETVI in % (Setaria viridis (SETVI); dosage 1.25 g/ha): 100%
- Post-emergence action against SETVI in % (Setaria viridis (SETVI); dosage 5 g/ha): 100%
- Post-emergence action against TRZAS (crop plant compatibility) ([4]; 1.25 g/ha): 10%
- Post-emergence action against ZEAMX (crop plant compatibility) (Zea mays (ZEAMX)): 20%
- Post-emergence action against VERPE (Veronica persica (VERPE); 1.25 g/ha): 90%
- Post-emergence action against VERPE (Veronica persica (VERPE); 5 g/ha): 100%
- Post-emergence action against VERPE (Veronica persica (VERPE); 20 g/ha): 100%
- Post-emergence action at 1.25 g/ha against AMARE in % [5]: 100%
- Post-emergence action at 5 g/ha against AMARE in % [5]: 100%
- Post-emergence action at 20 g/ha against AMARE in % [5]: 100%
- Post-emergence action against LOLRI in % (Lolium rigidum (LOLRI)): 80%
- Post-emergence action against POLCO in % ([6]; dosage 1.25 g/ha): 80%
- Post-emergence action against POLCO in % ([6]; dosage 5 g/ha): 100%
- Post-emergence action against POLCO in % ([6]; dosage 20 g/ha): 100%
- Post-emergence action at 1.25 g/ha against ABUTH in % [7]: 100%
- Post-emergence action at 5 g/ha against ABUTH in % [7]: 100%
- Post-emergence action at 20 g/ha against ABUTH in % [7]: 100%
- Post-emergence action against PHBPU in % ([8]; dosage 1.25 g/ha): 100%
- Post-emergence action against PHBPU in % ([8]; dosage 5 g/ha): 100%
- Post-emergence action against PHBPU in % ([8]; dosage 20 g/ha): 100%
- Post-emergence action against VIOTR (Viola tricolor (VIOTR); 1.25 g/ha): 100%
- Post-emergence action against VIOTR (Viola tricolor (VIOTR); 5 g/ha): 100%
- Post-emergence action against VIOTR (Viola tricolor (VIOTR); 20 g/ha): 100%
- Post-emergence action at 20 g/ha against AVEFA in % (Avena fatua (AVEFA)): 100%
- Post-emergence action against ORYSA (crop plant compatibility) (Oryza sativa (ORYSA)): 0%

SMILES: CCOCCOC(=O)COc1ccccc1Oc1cc(-n2c(=O)cc(C(F)(F)F)n(C)c2=O)c(F)cc1Cl [I.7-2]
- Post-emergence action against ECHCG in % ([1]; dosage 5 g/ha): 100%
- Post-emergence action against ECHCG in % ([1]; dosage 20 g/ha): 100%
- Post-emergence action at 5 g/ha against ALOMY in % ([2]; 5 g/ha): 80%
- Post-emergence action at 20 g/ha against ALOMY in % [2]: 100%
- Post-emergence action against MATIN in % ([3]; dosage 1.25 g/ha): 80%
- Post-emergence action against MATIN in % ([3]; dosage 5 g/ha): 80%
- Post-emergence action against MATIN in % ([3]; dosage 20 g/ha): 100%
- Post-emergence action against SETVI (Setaria viridis (SETVI)): 100%
- Post-emergence action against SETVI in % (Setaria viridis (SETVI); dosage 1.25 g/ha): 100%
- Post-emergence action against SETVI in % (Setaria viridis (SETVI); dosage 5 g/ha): 100%
- Post-emergence action against TRZAS (crop plant compatibility) ([4]; 1.25 g/ha): 20%
- Post-emergence action against TRZAS (crop plant compatibility) ([4]; 5 g/ha): 20%
- Post-emergence action against ZEAMX (crop plant compatibility) (Zea mays (ZEAMX)): 0%
- Post-emergence action against VERPE (Veronica persica (VERPE); 1.25 g/ha): 80%
- Post-emergence action against VERPE (Veronica persica (VERPE); 5 g/ha): 100%
- Post-emergence action against VERPE (Veronica persica (VERPE); 20 g/ha): 100%
- Post-emergence action at 1.25 g/ha against AMARE in % [5]: 100%
- Post-emergence action at 5 g/ha against AMARE in % [5]: 100%
- Post-emergence action at 20 g/ha against AMARE in % [5]: 100%
- Post-emergence action against LOLRI in % (Lolium rigidum (LOLRI)): 80%
- Post-emergence action against POLCO in % ([6]; dosage 20 g/ha): 100%
- Post-emergence action at 1.25 g/ha against ABUTH in % [7]: 100%
- Post-emergence action at 5 g/ha against ABUTH in % [7]: 100%
- Post-emergence action at 20 g/ha against ABUTH in % [7]: 100%
- Post-emergence action against PHBPU in % ([8]; dosage 1.25 g/ha): 100%
- Post-emergence action against PHBPU in % ([8]; dosage 5 g/ha): 100%
- Post-emergence action against PHBPU in % ([8]; dosage 20 g/ha): 100%
- Post-emergence action against VIOTR (Viola tricolor (VIOTR); 1.25 g/ha): 100%
- Post-emergence action against VIOTR (Viola tricolor (VIOTR); 5 g/ha): 100%
- Post-emergence action against VIOTR (Viola tricolor (VIOTR); 20 g/ha): 100%
- Post-emergence action at 20 g/ha against AVEFA in % (Avena fatua (AVEFA)): 90%
- Post-emergence action against ORYSA (crop plant compatibility) (Oryza sativa (ORYSA)): 0%
